According to patent US20180099967A1, “FUSED TRICYCLIC HETEROCYCLIC COMPOUNDS AS HIV INTEGRASE INHIBITORS” (MERCK SHARP & DOHME CORP., priority 2015, published 2018):
Read-outs that look alike come from different tables or passages of the source.

Test system: HIV-1
Test: microbe, parasite or virus in culture
Assay type: cell-based, HIV-1 (H9IIIB or NL4-3 virus)
Experimental: HIV-1 replication was monitored using MT4-gag-GFP clone D3 (hereafter designate MT4-GFP), which are MT-4 cells modified to harbor a GFP reporter gene, the expression of which is dependent on the HIV-1 expressed proteins tat and rev. Productive infection of an MT4-GFP cell with HIV-1 results in GFP expression approximately 24 h post-infection.
MT4-GFP cells were maintained at 37° C./5% CO2/90% relative humidity in RPMI 1640 supplemented with 10% fetal bovine serum, 100 U/ml penicillin/streptomycin, and 400 μg/ml G418 to maintain the reporter gene. For infections, MT4-GFP cells were placed in the same medium lacking G418 and infected overnight with H9IIIB or NL4-3 virus at an approximate multiplicity of infection of 0.01 in the same incubation conditions. Cells were then washed and resuspended in either RPMI 1640 containing no serum at 1.6×10^5 cells/mL (serum free conditions), 10% normal human serum at 1.6×10^5 cells/mL (10% NHS conditions) or in 100% normal human serum at 2×10^5 cells/mL (100% NHS conditions). Compound plates were prepared by dispensing compounds taken up in DMSO into wells of 384 well poly D lysine-coated plates (0.2 μl/well) using an ECHO acoustic dispenser. Each compound was tested in a 10 point serial 3-fold dilution (typical final concentrations: 4.2 μM-0.21 nM). Controls included no inhibitor (DMSO only) and a combination of three antiviral agents (efavirenz, indinavir, and the integrase strand transfer inhibitor L-002254051 at final concentrations of 4 μM each). Cells were added (50 μL/well) to compound plates and the infected cells were maintained at 37° C./5% CO2/90% relative humidity.
Infected cells were quantified at two time points, ˜48 h and ˜72 h post-infection, by counting the number of green cells in each well using an Acumen eX3 scanner. […] Inhibition of R0 is calculated for each well, and IC50 value was determined using non-linear 4-parameter curve fitting.

[1] = Human immunodeficiency virus 1, read-out: WILD TYPE CELL ASSAY Viking IP (0% NHS) (nM)
[2] = Human immunodeficiency virus 1, read-out: WILD TYPE CELL ASSAY Viking IP (100% NHS) (nM)
[3] = read-out: WILD TYPE CELL ASSAY Viking IP (0% NHS)
[4] = read-out: WILD TYPE CELL ASSAY Viking IP (100% NHS)

CCN1C[C@H]2C[C@@H](NC)c3c(C(=O)NCc4ccc(F)cc4F)c(=O)c(O)c(n32)C1=O [Compound 8]
IC50 [1]: 2 nM | IC50 [2]: 33 nM

CCCN1CC2CC(NS(C)(=O)=O)c3c(C(=O)NCc4ccc(F)cc4F)c(=O)c(O)c(n32)C1=O (single isomer, unassigned) [Compound 68]
IC50 [3]: 3 nM | IC50 [4]: 26 nM

CCN1C[C@H]2C[C@H](NS(C)(=O)=O)c3c(C(=O)NCc4ccc(F)c(Cl)c4F)c(=O)c(O)c(n32)C1=O [Compound 51]
IC50 [1]: 9 nM | IC50 [2]: 17800 nM

CCN1C[C@@H]2C[C@@H](N3CCCC3)c3c(C(=O)NCc4cccc(F)c4F)c(=O)c(O)c(n32)C1=O (single isomer, unassigned) [Compound 43]
IC50 [1]: 10 nM | IC50 [2]: 42 nM

CCN[C@@H]1C[C@@H]2CN(CC)C(=O)c3c(O)c(=O)c(C(=O)NCc4ccc(F)c(Cl)c4F)c1n32 [Compound 16]
IC50 [1]: > 42000 nM | IC50 [2]: > 42000 nM

CCN1C[C@H]2C[C@H](NCC3CC3)c3c(C(=O)NCc4ccc(F)cc4F)c(=O)c(O)c(n32)C1=O [Compound 23]
IC50 [1]: 43 nM | IC50 [2]: 1090 nM

CCN[C@@H]1C[C@H]2CN(CC)C(=O)c3c(O)c(=O)c(C(=O)NCc4ccc(F)cc4F)c1n32 [Compound 9]
IC50 [1]: 1 nM | IC50 [2]: 11 nM

CCN1C[C@H]2C[C@@H](NCc3ccccc3)c3c(C(=O)NCc4ccc(F)cc4F)c(=O)c(O)c(n32)C1=O [Compound 26]
IC50 [1]: 32 nM | IC50 [2]: 108 nM

CCN1C[C@H]2C[C@H](NC(C)=O)c3c(C(=O)NCc4ccc(F)cc4F)c(=O)c(O)c(n32)C1=O (single isomer, unassigned) [Compound 54]
IC50 [1]: 6 nM | IC50 [2]: 38 nM

CCN1C[C@H]2C[C@H](N)c3c(C(=O)NCc4ccc(F)cc4F)c(=O)c(O)c(n32)C1=O [Compound 3]
IC50 [1]: 10 nM | IC50 [2]: 4500 nM

CCNC1CC2CN(CCOC)C(=O)c3c(O)c(=O)c(C(=O)NCc4ccc(F)cc4F)c1n32 (single isomer, unassigned) [Compound 65]
IC50 [1]: 12 nM | IC50 [4]: 42 nM

CCN1C[C@@H]2CC(N3CCCC3)c3c(C(=O)NCc4ccc(F)cc4F)c(=O)c(O)c(n32)C1=O (single isomer, unassigned) [Compound 33]
IC50 [3]: 9 nM | IC50 [4]: 32 nM

CCCN[C@@H]1C[C@@H]2CN(CC)C(=O)c3c(O)c(=O)c(C(=O)NCc4ccc(F)cc4F)c1n32 [Compound 22]
IC50 [1]: 11 nM | IC50 [2]: 34 nM

CCN1C[C@H]2C[C@@H](NS(C)(=O)=O)c3c(C(=O)NCc4ccc(F)cc4F)c(=O)c(O)c(n32)C1=O [Compound 44]
IC50 [3]: 2 nM | IC50 [4]: 19 nM

[2H]C([2H])([2H])C([2H])([2H])N[C@H]1C[C@@H]2CN(CC)C(=O)c3c(O)c(=O)c(C(=O)NCc4ccc(F)cc4F)c1n32 [Compound 31]
IC50 [1]: 5 nM | IC50 [2]: 3720 nM

CCN[C@H]1C[C@@H]2CN(CC)C(=O)c3c(O)c(=O)c(C(=O)NCc4ccc(F)c(Cl)c4F)c1n32 [Compound 15]
IC50 [1]: 13 nM | IC50 [2]: > 8400 nM

CCN[C@H]1C[C@H]2CN(CC)C(=O)c3c(O)c(=O)c(C(=O)NCc4ccc(F)cc4F)c1n32 [Compound 10]
IC50 [1]: 1 nM | IC50 [2]: 170 nM

CCN1C[C@@H]2C[C@@H](N(C)C)c3c(C(=O)NCc4ccc(F)cc4)c(=O)c(O)c(n32)C1=O [Compound 39]
IC50 [1]: 3 nM | IC50 [2]: 22 nM

CCN1C[C@@H]2C[C@@H](NC(C)=O)c3c(C(=O)NCc4ccc(F)cc4F)c(=O)c(O)c(n32)C1=O [Compound 56]
IC50 [1]: 2 nM | IC50 [2]: 14 nM

CCN1C[C@H]2C[C@H](NCc3ccccc3)c3c(C(=O)NCc4ccc(F)cc4F)c(=O)c(O)c(n32)C1=O [Compound 25]
IC50 [1]: 28 nM | IC50 [2]: 224 nM

CCN1C[C@@H]2C[C@@H](NCCCCl)c3c(C(=O)NCc4cccc(Cl)c4F)c(=O)c(O)c(n32)C1=O [Compound 41]
IC50 [1]: 2 nM | IC50 [2]: 22 nM

CCN1C[C@H]2CC(N3CCCC3)c3c(C(=O)NCc4ccc(F)cc4F)c(=O)c(O)c(n32)C1=O (single isomer, unassigned) [Compound 35]
IC50 [3]: 26 nM | IC50 [4]: 62 nM

CCN1C[C@@H]2C[C@H](N)c3c(C(=O)NCc4ccc(F)cc4F)c(=O)c(O)c(n32)C1=O [Compound 2]
IC50 [3]: 12 nM | IC50 [4]: 374 nM

CCN1C[C@@H]2CC(NC(=O)C(=O)N(C)C)c3c(C(=O)NCc4ccc(F)cc4F)c(=O)c(O)c(n32)C1=O (stereo partly shown) [Compound 59]
IC50 [3]: 6 nM | IC50 [4]: 34 nM

CCN1C[C@H]2C[C@H](NCCC(F)(F)F)c3c(C(=O)NCc4ccc(F)cc4F)c(=O)c(O)c(n32)C1=O [Compound 29]
IC50 [1]: 7 nM | IC50 [2]: 228 nM

CCN1C[C@H]2C[C@@H](NS(=O)(=O)c3ccc(C)cc3)c3c(C(=O)NCc4ccc(F)cc4F)c(=O)c(O)c(n32)C1=O [Compound 52]
IC50 [1]: 22 nM | IC50 [2]: 310 nM

CCN[C@H]1C[C@@H]2CN(CC)C(=O)c3c(O)c(=O)c(C(=O)NCc4ccc(F)cc4F)c1n32 [Compound 11]
IC50 [1]: 2 nM | IC50 [2]: 1100 nM

CCN[C@@H]1C[C@@H]2CN(CC)C(=O)c3c(O)c(=O)c(C(=O)NCc4ccc(F)cc4F)c1n32 [Compound 12]
IC50 [1]: 10 nM | IC50 [2]: 32 nM

CCN1C[C@H]2C[C@@H](NCCC(F)(F)F)c3c(C(=O)NCc4ccc(F)cc4F)c(=O)c(O)c(n32)C1=O [Compound 30]
IC50 [1]: 6 nM | IC50 [2]: 31 nM

CCN1C[C@H]2C[C@@H](NCC3CC3)c3c(C(=O)NCc4ccc(F)cc4F)c(=O)c(O)c(n32)C1=O [Compound 24]
IC50 [1]: 20 nM | IC50 [2]: 37 nM

CCN1C[C@@H]2C[C@H](NS(C)(=O)=O)c3c(C(=O)NCc4ccc(F)cc4F)c(=O)c(O)c(n32)C1=O [Compound 46]
IC50 [1]: 11 nM | IC50 [2]: 1040 nM

CCN1C[C@H]2CC(N3CCCC3)c3c(C(=O)NCc4ccc(F)cc4F)c(=O)c(O)c(n32)C1=O (single isomer, unassigned) [Compound 36]
IC50 [3]: 6 nM | IC50 [4]: 1190 nM

CCCN1CC2CC(NS(C)(=O)=O)c3c(C(=O)NCc4ccc(F)cc4F)c(=O)c(O)c(n32)C1=O (single isomer, unassigned) [Compound 70]
IC50 [3]: 20 nM | IC50 [4]: 1840 nM

CCNC1CC2CN(CCOC)C(=O)c3c(O)c(=O)c(C(=O)NCc4ccc(F)cc4F)c1n32 (single isomer, unassigned) [Compound 67]
IC50 [3]: 7 nM | IC50 [4]: 31 nM

CCN1C[C@@H]2C[C@H](NC)c3c(C(=O)NCc4ccc(F)cc4F)c(=O)c(O)c(n32)C1=O [Compound 6]
IC50 [1]: 5 nM | IC50 [2]: 245 nM

CCN1C[C@@H]2C[C@@H](NS(C)(=O)=O)c3c(C(=O)NCc4ccc(F)cc4F)c(=O)c(O)c(n32)C1=O [Compound 47]
IC50 [1]: 1 nM | IC50 [2]: 10 nM

CCN1C[C@@H]2C[C@@H](NC)c3c(C(=O)NCc4ccc(F)cc4F)c(=O)c(O)c(n32)C1=O [Compound 5]
IC50 [1]: 2 nM | IC50 [2]: 17 nM

CCN1C[C@H]2C[C@@H](NS(C)(=O)=O)c3c(C(=O)NCc4ccc(F)c(F)c4F)c(=O)c(O)c(n32)C1=O [Compound 48]
IC50 [1]: 7 nM | IC50 [2]: 23 nM

CCN1C[C@@H]2C[C@@H](N(C)C)c3c(C(=O)NCc4ccc(F)cc4F)c(=O)c(O)c(n32)C1=O [Compound 37]
IC50 [3]: 2 nM | IC50 [4]: 11 nM

CCN[C@@H]1C[C@@H]2CN(CC)C(=O)c3c(O)c(=O)c(C(=O)NCc4cccc(Cl)c4F)c1n32 [Compound 20]
IC50 [1]: 5 nM | IC50 [2]: 28 nM

CCN[C@@H]1C[C@@H]2CN(CC)C(=O)c3c(O)c(=O)c(C(=O)NCc4c(F)cc(F)cc4F)c1n32 [Compound 14]
IC50 [1]: 6 nM | IC50 [2]: 47 nM

CCN1C[C@H]2C[C@H](NC)c3c(C(=O)NCc4ccc(F)cc4F)c(=O)c(O)c(n32)C1=O [Compound 7]
IC50 [1]: 2 nM | IC50 [2]: 3420 nM

CCN1C[C@H]2C[C@H](NCCOC)c3c(C(=O)NCc4ccc(F)cc4F)c(=O)c(O)c(n32)C1=O [Compound 27]
IC50 [1]: 17 nM | IC50 [2]: 968 nM

CCCN[C@H]1C[C@@H]2CN(CC)C(=O)c3c(O)c(=O)c(C(=O)NCc4ccc(F)cc4F)c1n32 [Compound 21]
IC50 [1]: 17 nM | IC50 [2]: 2290 nM

CCN1C[C@H]2C[C@@H](NC(C)=O)c3c(C(=O)NCc4ccc(F)cc4F)c(=O)c(O)c(n32)C1=O [Compound 55]
IC50 [1]: 8 nM | IC50 [2]: 540 nM

CCN1C[C@H]2C[C@H](NS(=O)(=O)c3ccc(C)cc3)c3c(C(=O)NCc4ccc(F)cc4F)c(=O)c(O)c(n32)C1=O [Compound 53]
IC50 [1]: 34 nM | IC50 [2]: 2260 nM

CCN[C@H]1C[C@@H]2CN(CC)C(=O)c3c(O)c(=O)c(C(=O)NCc4c(F)cc(F)cc4F)c1n32 [Compound 13]
IC50 [1]: 7 nM | IC50 [2]: 4020 nM
